# Columns and labels:
# MDR1 (P-glycoprotein) = MDR1 (P-glycoprotein) (Homo sapiens, UniProt P08183); format: in vitro ADME; details: from effective efflux ratio
# Method: internal standard at each timepoint. […]
# including an analytical internal standard.
# Apparent permeability (Papp) values were determined from the relationship: […]
# Where V is the volume of each Transwell compartment (apical 125 µL, basolateral 600 µL), and concentrations are the relative MS responses for compound (normalized to internal standard) in the donor chamber before incubation and acceptor chamber at the end of the incubation. Area = area of cells exposed for drug transfer (0.33 cm 2).
# Efflux ratios (Papp B>A / Papp A>B) were calculated for each compound from the […]
# MDR1-MDCK cell line has been engineered to overexpress the efflux transporter, MDR1 (P-glycoprotein), and a finding of good permeability B>A, but poor […]
# order to confirm the involvement of MDR1 in any efflux seen, an “ef fective efflux ratio” (EER) was calculated by comparing compound efflux ratios (ER) in the two cell types, i.e. EER = ER (MDR1-MDCK)/ ER (wild-type MDCK). This ratio illustrates the effect of the over-expressed MDR1 normalised for the background movement of compound through the wild-type cells. […]
# Compound recovery from the wells was determined from MS responses (normalized to internal standard) in donor and acceptor chambers at the end of incubation compared to response in the donor chamber pre-incubation. […]
# [1] = system: HTT93Q flies (Drosophila melanogaster model of HD); assay: Pseudopupil assay in Drosophila model of Huntington's disease; format: in vivo
# Text: To test the therapeutic efficacy of 1, we next employed a widely-used Drosophila melanogaster model of the inherited neurodegenerative disorder Huntington’s disease (HD)[30], which features pan-neuronal expression of a mutant huntingtin exon 1 fragment (HTT93Q). We have previously shown that several KMO inhibitors, including UPF 648 and Ro 61-8048, are neuroprotective in this Drosophila model. We thus tested the ability of 1 to ameliorate loss of photoreceptor neurons in the fly eye (rhabdomeres) using the pseudopupil assay. […] Although the efficacy of 1 may not be solely due to KMO inhibition in the fly, we have previously observed similar levels of neuroprotection with other KMO inhibitors.
# Flies were kept on standard maize food at 25 °C with a 12:12 light/dark cycle. HTT93Q exon 1 expressing flies were generated by crossing female virgins carrying the UASHTT93Qexon1 transgene[30] (a gift of Larry Marsh and Leslie Thompson, University of California, Irvine) to males of elavGAL4 [c155] driver line, obtained from the Bloomington Drosophila Stock Center. For the drug feeding experiments, inhibitor 1 was dissolved in dimethylsulfoxide (DMSO) and added to maize media at the experimental concentrations. […] At day 7, rhabdomeres were scored as previously described. […] Rhabdomeres were examined using a Nikon Optiphot-2 light microscope, with ~ 80 ommatidia scored per fly.
# [2] = Plasma protein binding (equilibrium dialysis); format: in vitro ADME; details: female, CD1, mouse, read-out: Fraction unbound (blood)
# Method: for 1 minute and then centrifuged at 3000 rpm in 96-well blocks for 15 minutes (Allegra X12-R, Beckman Coulter, USA). All samples were analysed by means of UPLC/MS/MS on a Xevo TQs micro Mass Spectrometer (Waters Corporation, USA).
# The unbound fraction was determined as the ratio of the peak area in artificial CSF to that in brain, with correction for dilution factor according to equation (5)21, […]
# ((1/f ! ,!""!#$%& ) − 1) + 1/D where D = dilution factor in brain homogenate and fu,apparent is the measured free fraction of diluted brain homogenate.
# 3.9 Plasma protein binding
# In brief, a 96 well equilibrium dialysis apparatus was used to determine the free fraction in plasma for inhibitor 1 (HT Dialysis LLC, Gales Ferry, CT). Membranes (12-14 kDA cut-off) were conditioned in deionised water for 60 minutes, followed by conditioning in 80:20 deionised water:ethanol for 20 minutes, and then rinsed in isotonic buffer before use. Female CD1 mouse plasma was removed from the freezer and allowed to thaw on the day of experiment. […] All samples were analysed by UPLC-MS/MS on a Xevo TQs micro Mass Spectrometer (Waters
# Corporation, USA). The unbound fraction was determined as the ratio of the peak area in buffer to that in plasma.
# Sequence of MDR1 (P-glycoprotein) (P08183 whole entry): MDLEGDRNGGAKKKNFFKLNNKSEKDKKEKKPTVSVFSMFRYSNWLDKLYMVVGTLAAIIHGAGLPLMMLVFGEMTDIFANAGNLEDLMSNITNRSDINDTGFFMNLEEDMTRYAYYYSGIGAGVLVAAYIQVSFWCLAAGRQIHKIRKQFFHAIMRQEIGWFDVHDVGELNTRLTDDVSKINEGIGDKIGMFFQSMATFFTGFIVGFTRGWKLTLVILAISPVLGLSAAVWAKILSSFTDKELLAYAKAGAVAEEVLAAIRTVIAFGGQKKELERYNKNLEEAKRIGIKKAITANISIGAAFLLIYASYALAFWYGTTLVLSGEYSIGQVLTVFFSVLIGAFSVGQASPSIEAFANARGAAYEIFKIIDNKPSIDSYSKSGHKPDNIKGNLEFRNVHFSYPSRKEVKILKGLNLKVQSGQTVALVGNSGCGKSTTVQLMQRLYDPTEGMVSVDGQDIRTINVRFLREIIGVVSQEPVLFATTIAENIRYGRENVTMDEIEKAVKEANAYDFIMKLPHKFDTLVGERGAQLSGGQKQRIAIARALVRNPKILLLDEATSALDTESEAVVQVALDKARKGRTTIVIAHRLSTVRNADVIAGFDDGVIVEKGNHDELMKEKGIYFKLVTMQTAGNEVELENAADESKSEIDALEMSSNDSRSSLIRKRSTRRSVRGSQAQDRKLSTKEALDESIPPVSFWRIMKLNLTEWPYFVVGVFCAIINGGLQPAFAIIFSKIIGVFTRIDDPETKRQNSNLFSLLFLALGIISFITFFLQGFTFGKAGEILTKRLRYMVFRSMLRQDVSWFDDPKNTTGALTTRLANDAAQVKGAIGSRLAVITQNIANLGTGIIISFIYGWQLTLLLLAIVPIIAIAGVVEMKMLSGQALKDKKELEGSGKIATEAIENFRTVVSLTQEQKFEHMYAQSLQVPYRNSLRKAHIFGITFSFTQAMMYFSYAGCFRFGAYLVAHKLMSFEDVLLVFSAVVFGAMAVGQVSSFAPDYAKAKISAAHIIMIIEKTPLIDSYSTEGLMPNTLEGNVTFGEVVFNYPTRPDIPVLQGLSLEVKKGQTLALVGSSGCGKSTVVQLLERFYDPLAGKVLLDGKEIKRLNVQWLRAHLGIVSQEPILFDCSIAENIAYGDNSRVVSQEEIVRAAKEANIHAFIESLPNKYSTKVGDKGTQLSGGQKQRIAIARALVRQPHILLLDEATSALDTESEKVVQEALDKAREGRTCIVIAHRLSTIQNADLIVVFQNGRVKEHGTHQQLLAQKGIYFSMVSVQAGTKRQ
smiles,measurement,setting,value
"Cc1cc2c(c(C)c1Cl)N(CC(=O)O)C(=O)CO2 [compound 1, (6-chloro-5,7-dimethyl-3-oxo-2,3-dihydro-4H-1,4-benzoxazin-4-yl) acetic acid]",Substrate for P-glycoprotein,MDR1 (P-glycoprotein),not a substrate
same,Neurodegeneration prevented,"[1]; HD flies, 100 μM, 7 days",~ 57%
same,Reduction in neuron loss (rhabdomeres),"[1]; HTT93Q flies, 10 μM or 100 μM for 7 days, vs untreated or DMSO",significant dose-dependent reduction
same,"fraction unbound at 5 h, 10 ug/mL",[2],0.04

# From article PMC6656724 (Communications Biology, 2019)
